Tests used:
Type in all cases: physicochemical
[1] = In vitro dissolution test of Drug 2 compositions in PBS with sodium taurocholic acid/POPC (microcentrifuge, HPLC); details: for Drug 2 Concentration: PBS with sodium taurocholic acid/POPC, 37° C.
Procedure: Example 5 was prepared by combining the drug/matrix dispersion of Drug 2 and polyethylene glycol with the concentration-enhancing polymer HPMCAS. Example 5 was evaluated in an in vitro dissolution test using a microcentrifuge method. In this test, 18 mg of the dispersion was added to each of two microcentrifuge tubes. The tubes were placed in a 37° C. temperature-controlled chamber, and 1.8 mL PBS containing 7.3 mM sodium taurocholic acid and 1.4 mM 1-palmitoyl-2-oleyl-sn-glycero-3-phosphocholine, with 7.2 mg HPMCAS-MF, was added. The tests were sampled as described in Example 1, and analyzed using HPLC. Samples were collected at 4, 10, 20, 40, 90, and 1200 minutes.

[2] = In vitro dissolution test of Drug 3 compositions in PBS (microcentrifuge, HPLC); details: for Drug 3 Concentration: PBS, 37° C.
Procedure: Example 6 was prepared by combining the dispersion with the concentration-enhancing polymer HPMCAS. 7.2 mg of the dispersion of Example 6 was added to microcentrifuge tubes. Tests were performed in duplicate. The tubes were placed in a 37° C. temperature-controlled chamber, and 1.8 mL PBS with 5.4 mg HPMCAS-MF was added. The tests were sampled as described in Example 1, and analyzed using HPLC.

[3] = In vitro dissolution test of Drug 4 compositions in PBS (microcentrifuge, HPLC); parameters: AUC: concentration or dose not given beside the values; details: for Drug 4 Concentration: PBS, 37° C.
Procedure: Tests were performed in duplicate. The tubes were placed in a 37° C. temperature-controlled chamber, and 1.8 mL PBS with 7.2 mg PVA was added. The tests were sampled as described in Example 1, and analyzed using HPLC. HPLC analysis was performed using a Zorbax SB C18 column, with a mobile phase of 35 vol. % water and 65 vol. % methanol. UV absorbance of Drug 4 was measured at 297 nm.

[4] = In vitro dissolution test of Drug 5 compositions in MFDS pH 6.5 (microcentrifuge, HPLC); details: for Drug 5 Concentration: MFDS pH 6.5, 37° C.
Procedure: Example 10 was prepared by combining the above amorphous dispersion with the concentration-enhancing polymer hydroxypropyl methylcellulose (HPMC E3 Prem LV, Dow Chemical Co.). 1.4 mg of the amorphous dispersion was added to microcentrifuge tubes. The tubes were placed in a 37° C. temperature-controlled chamber, and 1.8 mL PBS containing 0.5 wt % sodium taurocholic acid/1-palmitoyl-2-oleyl-sn-glycero-3-phosphocholine (MFDS, pH 6.5) and 0.4 mg HPMC was added. The tests were sampled as described in Example 1, and analyzed using HPLC.
For Control C12, in vitro dissolution tests were performed using the precedures described above except that 1.4 mg of the amorphous dispersion was tested without concentration-enhancing polymer (HPMC) in the test solution.

CCC(CC)Oc1c(C)cnc(Oc2c(C)cc(C)cc2C)c1C [Control C7, 3,5-dimethyl-4-(3′-pentoxy)-2-(2′, 4′, 6′-trimethylphenoxy) pyridine]
Drug 2 Concentration ([1]; 0 min): 0 µg/mL
Drug 2 Concentration ([1]; 4 min): 16 µg/mL
Drug 2 Concentration ([1]; 10 min): 33 µg/mL
Drug 2 Concentration ([1]; 20 min): 32 µg/mL
Drug 2 Concentration ([1]; 40 min): 30 µg/mL
Drug 2 Concentration ([1]; 90 min): 39 µg/mL
Drug 2 Concentration ([1]; 1200 min): 37 µg/mL
AUC ([1]; Drug 2, 0 min): 0 µg·min/mL
AUC ([1]; Drug 2, 4 min): 0 µg·min/mL
AUC ([1]; Drug 2, 10 min): 200 µg·min/mL
AUC ([1]; Drug 2, 20 min): 500 µg·min/mL
AUC ([1]; Drug 2, 40 min): 1,100 min*μg/mL
AUC ([1]; Drug 2, 90 min): 2,800 min*μg/mL
AUC ([1]; Drug 2, 1200 min): 45,000 min*μg/mL
AUC90 ([1]; Drug 2, area under the concentration versus time curve after 90 minutes): 2800 µg·min/mL
C1200 ([1]; Drug 2 concentration at 1200 minutes): 37 µg/mL
Cmax,90 ([1]; maximum concentration of Drug 2 in solution during the first 90 minutes): 39000 ng/mL

CCOC(=O)N1c2ccc(C(F)(F)F)cc2[C@@H](N(Cc2cc(C(F)(F)F)cc(C(F)(F)F)c2)C(=O)OC)C[C@H]1CC [Control C9, [2R,4S] 4-[(3,5-bis-trifluoromethyl-benzyl)-methoxycarbonyl-amino]-2-ethyl-6-trifluoromethyl-3,4-dihydro-2H-quinoline-1-carboxylic acid ethyl ester]
Drug 3 Concentration ([2]; 0 min): <1 µg/mL
Drug 3 Concentration ([2]; 4 min): <1 µg/mL
Drug 3 Concentration ([2]; 10 min): <1 µg/mL
Drug 3 Concentration ([2]; 20 min): <1 µg/mL
Drug 3 Concentration ([2]; 40 min): <1 µg/mL
Drug 3 Concentration ([2]; 90 min): <1 µg/mL
Drug 3 Concentration ([2]; 1200 min): <1 µg/mL
AUC ([2]; Drug 3, 0 min): <1 µg·min/mL
AUC ([2]; Drug 3, 4 min): <1 µg·min/mL
AUC ([2]; Drug 3, 10 min): <1 µg·min/mL
AUC ([2]; Drug 3, 20 min): <1 µg·min/mL
AUC ([2]; Drug 3, 40 min): <1 µg·min/mL
AUC ([2]; Drug 3, 90 min): <1 µg·min/mL
AUC ([2]; Drug 3, 1200 min): <1 µg·min/mL
AUC90 ([2]; Drug 3, after 90 minutes): <1 µg·min/mL
C1200 ([2]; Drug 3 concentration at 1200 minutes): <1 µg/mL
Cmax,90 ([2]; maximum concentration of Drug 3 during the first 90 minutes): <1000 ng/mL

O=C(N[C@@H](Cc1ccccc1)[C@@H](O)C(=O)N1C[C@@H](O)[C@@H](O)C1)c1cc2cc(Cl)ccc2[nH]1 [Control C11, 5-chloro-1H-indole-2-carboxylic acid [(1S)-benzyl-3-((3R, 4S)-dihydroxypyrrolidin-1-yl-)-(2R)-hydroxy-3-oxypropyl] amide]
Drug 4 Concentration ([3]; 0 min): 0 µg/mL
Drug 4 Concentration ([3]; 4 min): 360 µg/mL
Drug 4 Concentration ([3]; 10 min): 382 µg/mL
Drug 4 Concentration ([3]; 20 min): 372 µg/mL
Drug 4 Concentration ([3]; 40 min): 345 µg/mL
Drug 4 Concentration ([3]; 90 min): 262 µg/mL
Drug 4 Concentration ([3]; 1200 min): 154 µg/mL
AUC ([3]; Drug 4, 0 min): 0 µg·min/mL
AUC ([3]; Drug 4, 4 min): 700 µg·min/mL
AUC ([3]; Drug 4, 10 min): 2,900 min*μg/mL
AUC ([3]; Drug 4, 20 min): 6,700 min*μg/mL
AUC ([3]; Drug 4, 40 min): 13,900 min*μg/mL
AUC ([3]; Drug 4, 90 min): 29,100 min*μg/mL
AUC ([3]; Drug 4, 1200 min): 259,800 min*μg/mL
AUC90 ([3]; Drug 4, after 90 minutes): 29,100 min*μg/mL
C1200 ([3]; Drug 4 concentration at 1200 minutes): 154 µg/mL
Cmax,90 ([3]; maximum concentration of Drug 4 during the first 90 minutes): 382000 ng/mL

CS(=O)(=O)O.O=C1Cc2cc(CCN3CCN(c4nsc5ccccc45)CC3)c(Cl)cc2N1 [Control C13]
Drug 5 Concentration ([4]; 0 min): 0 µg/mL
Drug 5 Concentration ([4]; 4 min): 16 µg/mL
Drug 5 Concentration ([4]; 10 min): 8 µg/mL
Drug 5 Concentration ([4]; 20 min): 5 µg/mL
Drug 5 Concentration ([4]; 40 min): 4 µg/mL
Drug 5 Concentration ([4]; 90 min): 4 µg/mL
Drug 5 Concentration ([4]; 1200 min): 4 µg/mL
AUC ([4]; Drug 5, 0 min): 0 µg·min/mL
AUC ([4]; Drug 5, 4 min): 0 µg·min/mL
AUC ([4]; Drug 5, 10 min): 100 µg·min/mL
AUC ([4]; Drug 5, 20 min): 200 µg·min/mL
AUC ([4]; Drug 5, 40 min): 300 µg·min/mL
AUC ([4]; Drug 5, 90 min): 500 µg·min/mL
AUC ([4]; Drug 5, 1200 min): 4,900 min*μg/mL
AUC90 ([4]; Drug 5, after 90 minutes): 500 µg·min/mL
C1200 ([4]; Drug 5 concentration at 1200 minutes): 4 µg/mL
Cmax,90 ([4]; maximum concentration of Drug 5 during the first 90 minutes): 16000 ng/mL
